Laboratory results reported in US7935724B2, “Thiophene and benzothiophene hydroxamic acid derivatives” (Merck HDAC Research, LLC, priority 2003, dated 2011).
Like-named read-outs stand apart in the source and are kept apart here.

Legend:
[1] = target: T1, histone deacetylase, subtype 1 (HDAC1) (Homo sapiens, UniProt Q13547); assay: HDAC1-Flag assay (in vitro deacetylation assay); format: biochemical; conditions: concentration for 50% inhibition of deacetylation, substrate at Km, unit inferred, text gives nm, read-out: HDAC Inhibition
T1 construct: Flag; made in house
T1 sequence (Q13547 whole entry): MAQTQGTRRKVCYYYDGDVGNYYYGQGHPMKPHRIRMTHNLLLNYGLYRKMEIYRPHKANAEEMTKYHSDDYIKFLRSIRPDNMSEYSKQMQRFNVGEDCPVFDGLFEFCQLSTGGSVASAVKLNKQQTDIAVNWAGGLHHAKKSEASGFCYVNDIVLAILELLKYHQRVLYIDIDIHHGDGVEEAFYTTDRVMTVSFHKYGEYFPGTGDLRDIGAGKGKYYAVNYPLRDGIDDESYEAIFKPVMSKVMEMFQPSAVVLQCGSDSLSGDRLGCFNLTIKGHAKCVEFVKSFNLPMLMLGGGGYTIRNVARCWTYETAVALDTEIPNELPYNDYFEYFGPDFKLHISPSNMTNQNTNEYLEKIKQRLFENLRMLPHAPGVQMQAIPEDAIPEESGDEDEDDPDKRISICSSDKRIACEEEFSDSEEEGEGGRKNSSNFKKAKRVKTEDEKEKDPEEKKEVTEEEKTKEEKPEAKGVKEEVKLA
Experimental: Novel compounds were tested for their ability to inhibit histone deacetylase, subtype 1 (HDAC1) using an in vitro deacetylation assay. The enzyme source for this assay was an epitope-tagged human HDAC1 complex immuno-purified from stably expressing mammalian cells. The substrate consisted of a commercial product containing an acetylated lysine side chain (BIOMOL Research Laboratories, Inc., Plymouth Meeting, Pa.). Upon deacetylation of the substrate by incubation with the purified HDAC1 complex, a fluorophore is produced that is directly proportional to the level of deacetylation.

[2] = test system: murine erythroleukemia cell line SC9; assay: MTS assay (Cell Titer 96 Aqueous One Solution Cell Proliferation Assay); format: cell-based; conditions: unit inferred, unit nm
Experimental: The novel compounds of the present invention were tested for their ability to inhibit proliferation of the murine erythroleukemia cell line SC9.
The MTS assay, also referred to as the Cell Titer 96 Aqueous One Solution Cell Proliferation Assay, is a calorimetric method for determining the number of viable cells in proliferation, cytotoxicity or chemosensitivity assays. The MTS reagent contains a novel tetrazolium compound [3-(4,5-dimethylthiazol-2-yl)-5-(3-carboxymethoxyphenyl)-2-(4-sulfophenyl)-2H-tetrazolium, inner salt] and electron coupling reagent (phenazine ethosulfate;PES). Murine erythroleukemia cells (SC-9) were incubated with vehicle or increasing concentrations of compound for 48 hours. Cell proliferation was quantitated by adding a small amount of the MTS reagent directly to culture wells, incubating for 1-4 hours and then recording the absorbance at 490 nm with a 96-well plate reader. The quantity of formazan product, as measured by […] absorbance, is directly proportional to the number of living cells in culture.

[3] = Table 1, benzothiophene backbone
[4] = Mus musculus, SC9, 48 h, Table 3, concentration inhibiting proliferation of SC9 cells

IC50 [1, 3]	IC50 [2, 4]	IC50 ([1]; Table 2, thiophene backbone)	IC50 ([2]; Table 3, concentration inhibiting proliferation of SC9 cells, 48 hours)	Compound
11.5 ± 2.1 nM	250 ± 57.2 nM			O=C(Cc1ccccc1)Nc1ccc2cc(C(=O)NO)sc2c1 [Compound 6]
26 ± 1.4 nM	441 nM			O=C(NO)c1cc2ccc(NS(=O)(=O)c3cccc4ccccc34)cc2s1 [Compound 13]
21.5 ± 3.5 nM	917 nM			O=C(NO)c1cc2ccc(NS(=O)(=O)c3ccc4ccccc4c3)cc2s1 [Compound 14]
140 ± 14.1 nM	545 nM			O=C(NO)c1cc2cc(NC(=O)c3cccc4ccccc34)ccc2s1 [Compound 25]
79.5 ± 0.7 nM	696 nM			O=C(NO)c1cc2ccc(NC(=O)C(c3ccccc3)c3ccccc3)cc2s1 [Compound 28]
79 ± 11.3 nM	785 nM			O=C(NO)c1cc2ccc(NC(=O)c3cccc4ccccc34)cc2s1 [Compound 33]
119 nM	717 nM			O=C(Nc1ccc2sc(C(=O)NO)cc2c1)OCc1ccccc1 [Compound 36]
189 ± 4.9 nM	666 nM			O=C(NO)c1cc2cc(NC(=O)C(c3ccccc3)c3ccccc3)ccc2s1 [Compound 39]
	642 nM	63.5 ± 7.7 nM		O=C(Cc1ccccc1)Nc1ccc(C(=O)NO)s1 [Compound 59]
92.5 ± 23.3 nM	836 ± 28.9 nM			CCC(C(=O)Nc1ccc2sc(C(=O)NO)cc2c1)c1ccccc1 (stereo not shown) [Compound 86]
19 ± 5.6 nM	238 nM			O=C(Cc1ccc(Cl)cc1)Nc1ccc2cc(C(=O)NO)sc2c1 [Compound 88]
19.5 ± 0.7 nM	205 ± 37.5 nM			COc1ccc(CC(=O)Nc2ccc3cc(C(=O)NO)sc3c2)cc1 [Compound 89]
99.5 ± 37.4 nM	704 ± 96.1 nM			O=C(CN1CCC(Cc2ccccc2)CC1)Nc1ccc2cc(C(=O)NO)sc2c1 [Compound 90]
178 ± 55.8 nM	899 nM			O=C(CN1CCN(C(=O)OCc2ccccc2)CC1)Nc1ccc2cc(C(=O)NO)sc2c1 [Compound 91]
316 ± 56.5 nM	751 nM			O=C(CN(Cc1ccccc1)Cc1ccccc1)Nc1ccc2cc(C(=O)NO)sc2c1 [Compound 93]
41.5 ± 2.1 nM			225 ± 26.7 nM	CCC(C(=O)Nc1ccc2cc(C(=O)NO)sc2c1)c1ccccc1 (stereo not shown) [Compound 98]
45 ± 5.6 nM	519 ± 65.7 nM			COc1cccc(N2CCN(CC(=O)Nc3ccc4cc(C(=O)NO)sc4c3)CC2)c1 [Compound 100]
59 ± 7 nM	830 ± 393 nM			O=C(CN1CCN(c2ncccn2)CC1)Nc1ccc2cc(C(=O)NO)sc2c1 [Compound 101]
74.5 ± 17.6 nM	537 ± 124 nM			CN(C(=O)Cc1ccccc1)c1ccc2cc(C(=O)NO)sc2c1 [Compound 106]
79 ± 5.6 nM	309 nM			COc1ccccc1N1CCN(CC(=O)Nc2ccc3cc(C(=O)NO)sc3c2)CC1 [Compound 107]
50 ± 11.3 nM	442 nM			O=C(CN1CCN(c2ccccn2)CC1)Nc1ccc2cc(C(=O)NO)sc2c1 [Compound 108]
61 ± 15.5 nM	833 ± 65 nM			O=C(Cc1cccnc1)Nc1ccc2cc(C(=O)NO)sc2c1 [Compound 110]
38 nM	306 ± 78.5 nM			O=C(CN1CCCCC1)Nc1ccc2cc(C(=O)NO)sc2c1 [Compound 115]
36.6 ± 13.2 nM	568 ± 227 nM			O=C(CN1CCN(c2ccccc2Cl)CC1)Nc1ccc2cc(C(=O)NO)sc2c1 [Compound 119]

IC50 [1, 3]	IC50 [2, 4]	IC50 ([1]; Table 2, thiophene backbone)	IC50 ([2]; Table 3, concentration inhibiting proliferation of SC9 cells, 48 hours)	Compound
18 ± 5.6 nM	206 ± 79.2 nM			CC(C(=O)Nc1ccc2cc(C(=O)NO)sc2c1)c1ccccc1 (stereo not shown) [Compound 123]
125 ± 5.6 nM	836 nM			O=C(NO)c1cc2ccc(NC(=O)C3(c4ccccc4)CC3)cc2s1 [Compound 126]
115 ± 9.8 nM	935 nM			O=C(NO)c1cc2ccc(NC(=O)C3(c4ccc(Cl)cc4)CCC3)cc2s1 [Compound 127]
	836 nM			O=C(NC1CCCc2ccccc21)c1ccc2cc(C(=O)NO)sc2c1 (stereo not shown) [Compound 135]
116 ± 3.5 nM				O=C(NO)c1cc2cc(CNCc3nc4ccccc4[nH]3)ccc2s1 [Compound 141]
258 ± 17 nM	714 nM			O=C(NO)c1cc2cc(CNCc3ccccn3)ccc2s1 [Compound 142]
325 ± 57.4 nM				COc1ccc(CCNCc2ccc3sc(C(=O)NO)cc3c2)cc1OC [Compound 143]
1580 ± 334 nM				O=C(NO)c1cc2cc(CNCCc3ccc(OCc4ccccc4)c(OCc4ccccc4)c3)ccc2s1 [Compound 144]
151 ± 28.2 nM	990 nM			O=C(NO)c1cc2cc(CNCCc3c[nH]c4ccccc34)ccc2s1 [Compound 145]
524 ± 102 nM	891 nM			O=C(NO)c1cc2cc(CNC3CCN(Cc4ccccc4)CC3)ccc2s1 [Compound 146]
75.5 ± 7.7 nM	201 ± 59.3 nM			COc1ccccc1CNCc1ccc2sc(C(=O)NO)cc2c1 [Compound 147]
100 ± 12.7 nM	430 ± 132 nM			COc1cccc(CNCc2ccc3sc(C(=O)NO)cc3c2)c1 [Compound 148]
96.5 ± 34.4 nM				O=C(NO)c1cc2cc(CNCc3ccccc3Cl)ccc2s1 [Compound 149]
144.5 ± 0.7 nM				O=C(NO)c1cc2cc(CNCc3cccc(Cl)c3)ccc2s1 [Compound 150]
203 ± 14.8 nM	947 nM			O=C(NO)c1cc2cc(CNCCc3ccccc3)ccc2s1 [Compound 151]
415 ± 91.6 nM				O=C(NO)c1cc2cc(CNCC(c3ccccc3)c3ccccc3)ccc2s1 [Compound 152]
124 ± 24 nM	531 nM			O=C(NO)c1cc2cc(CNCc3ccc(Cl)cc3)ccc2s1 [Compound 153]
163 ± 37.4 nM	637 nM			O=C(NO)c1cc2cc(CNCCCc3ccccc3)ccc2s1 [Compound 154]
441 ± 98.2 nM				O=C(NO)c1cc2ccc(C(=O)N3CCN(c4ccc(Cl)cc4)CC3)cc2s1 [Compound 158]
536 ± 168 nM				CC(C)(C(=O)Nc1ccc2cc(C(=O)NO)sc2c1)c1ccc(Cl)cc1 [Compound 159]
90 ± 11.3 nM				O=C(NCCCc1ccccc1)c1ccc2cc(C(=O)NO)sc2c1 [Compound 160]
58 nM				O=C(NCCc1ccccc1)c1ccc2cc(C(=O)NO)sc2c1 [Compound 161]
734 ± 34.6 nM				O=C(NO)c1cc2cc(CNCCN3CCOCC3)ccc2s1 [Compound 163]
269 ± 63.6 nM				O=C(NO)c1cc2cc(CNc3cccc(OCc4ccccc4)c3)ccc2s1 [Compound 165]

IC50 [1, 3]	IC50 [2, 4]	IC50 ([1]; Table 2, thiophene backbone)	IC50 ([2]; Table 3, concentration inhibiting proliferation of SC9 cells, 48 hours)	Compound
90 ± 5.6 nM				COc1ccccc1CNC(=O)c1ccc2sc(C(=O)NO)cc2c1 [Compound 166]
94 ± 5.6 nM				COc1cccc(CNC(=O)c2ccc3sc(C(=O)NO)cc3c2)c1 [Compound 167]
36 ± 1.4 nM				COc1ccc(CNC(=O)c2ccc3sc(C(=O)NO)cc3c2)cc1 [Compound 168]
66.5 ± 2.1 nM				O=C(NCc1ccccc1Cl)c1ccc2sc(C(=O)NO)cc2c1 [Compound 169]
88 nM				O=C(NCc1cccc(Cl)c1)c1ccc2sc(C(=O)NO)cc2c1 [Compound 170]
63.5 ± 4.9 nM				O=C(NCc1ccc(Cl)cc1)c1ccc2sc(C(=O)NO)cc2c1 [Compound 171]
1360 ± 47.3 nM				O=C(NC1CCc2ccccc21)c1ccc2sc(C(=O)NO)cc2c1 (stereo not shown) [Compound 172]
129 ± 18.3 nM				O=C(NCCc1c[nH]c2ccccc12)c1ccc2sc(C(=O)NO)cc2c1 [Compound 173]
428 ± 102 nM				O=C(NCCC(c1ccccc1)c1ccccc1)c1ccc2sc(C(=O)NO)cc2c1 [Compound 174]
154 ± 8.4 nM				O=C(NCCCCc1ccccc1)c1ccc2sc(C(=O)NO)cc2c1 [Compound 175]
126 ± 31.1 nM				O=C(NCc1ccc(Cl)cc1)c1ccc2cc(C(=O)NO)sc2c1 [Compound 176]
102 ± 26.2 nM				O=C(CN(CC(=O)Nc1ccccc1)C(=O)c1ccc2sc(C(=O)NO)cc2c1)Nc1ccccc1 [Compound 179]
1070 ± 21.9 nM				O=C(Nc1cccc2cccnc12)c1ccc2cc(C(=O)NO)sc2c1 [Compound 182]
4140 ± 1890 nM				O=C(Nc1nc(-c2ccccc2)cs1)c1ccc2cc(C(=O)NO)sc2c1 [Compound 183]
199 ± 35.3 nM				O=C(NO)c1cc2ccc(COCc3ccccc3)cc2s1 [Compound 184]
170 ± 38.8 nM				O=C(NO)c1cc2ccc(C(=O)N3CCC(Cc4ccccc4)CC3)cc2s1 [Compound 190]
453 ± 114 nM				O=C(NO)c1cc2ccc(C(=O)N3CCN(Cc4ccccc4)CC3)cc2s1 [Compound 191]
53 nM				O=C(NO)c1cc2ccc(CNCc3ccccc3)cc2s1 [Compound 192]
99 nM				COc1ccc(CN(Cc2ccc3cc(C(=O)NO)sc3c2)C2CCCCC2)cc1 [Compound 193]
76 nM				COc1ccc(CN(Cc2ccc3cc(C(=O)NO)sc3c2)C2CCOCC2)cc1 [Compound 194]
		127 ± 11.3 nM		O=C(CCc1ccc(C(=O)NO)s1)Nc1cccc(OCc2ccccc2)c1 [Compound 195]
		1450 ± 111 nM		O=C(CCc1ccc(C(=O)NO)s1)NCC1CCCCC1 [Compound 196]
		134 ± 7.7 nM		O=C(CCc1ccc(C(=O)NO)s1)Nc1nc2ccccc2s1 [Compound 197]
		9260 ± 1180 nM		O=C(NO)c1cc(-c2ccccc2)cs1 [Compound 199]

Compound	IC50 [1, 3]	IC50 [2, 4]	IC50 ([1]; Table 2, thiophene backbone)	IC50 ([2]; Table 3, concentration inhibiting proliferation of SC9 cells, 48 hours)
O=C(NO)c1cc2cc(CNCc3ccccc3)ccc2s1 [Compound 99]	144 ± 53 nM	474 ± 65.7 nM		
